IC50 data for 17 compounds are collected here from patent publication US11155544B2, “Heterocycle comprising tyrosine kinase inhibitors” (Principia Biopharma Inc., priority 2015, dated 2021).

The experiment concerns the target human recombinant BTK (Homo sapiens (Human), UniProt Q06187). As to the kind of experiment: BTK Enzymatic Activity Assay (Caliper-based kinase assay). The class given is biochemical. Conditions: human recombinant BTK (0.5 nM), ATP (16 μM), peptide substrate (1 μM), room temperature for 3 h. On the procedure:
A Caliper-based kinase assay (Caliper Life Sciences, Hopkinton, Mass.) was used to measure inhibition of BTK kinase activity of a compound of the present disclosure. Serial dilutions of test compounds were incubated with human recombinant BTK (0.5 nM), ATP (16 μM) and a phosphoacceptor peptide substrate FAM-GEEPLYWSFPAKKK-NH2 (1 μM) at room temperature for 3 h. The reaction was then terminated with EDTA, final concentration 20 mM and the phosphorylated reaction product was quantified on a Caliper Desktop Profiler (Caliper LabChip 3000). Percent inhibition was calculated for each compound dilution and the concentration that produced 50% inhibition was calculated. This value is presented as the IC50.

human recombinant BTK, sequence (Q06187 whole entry): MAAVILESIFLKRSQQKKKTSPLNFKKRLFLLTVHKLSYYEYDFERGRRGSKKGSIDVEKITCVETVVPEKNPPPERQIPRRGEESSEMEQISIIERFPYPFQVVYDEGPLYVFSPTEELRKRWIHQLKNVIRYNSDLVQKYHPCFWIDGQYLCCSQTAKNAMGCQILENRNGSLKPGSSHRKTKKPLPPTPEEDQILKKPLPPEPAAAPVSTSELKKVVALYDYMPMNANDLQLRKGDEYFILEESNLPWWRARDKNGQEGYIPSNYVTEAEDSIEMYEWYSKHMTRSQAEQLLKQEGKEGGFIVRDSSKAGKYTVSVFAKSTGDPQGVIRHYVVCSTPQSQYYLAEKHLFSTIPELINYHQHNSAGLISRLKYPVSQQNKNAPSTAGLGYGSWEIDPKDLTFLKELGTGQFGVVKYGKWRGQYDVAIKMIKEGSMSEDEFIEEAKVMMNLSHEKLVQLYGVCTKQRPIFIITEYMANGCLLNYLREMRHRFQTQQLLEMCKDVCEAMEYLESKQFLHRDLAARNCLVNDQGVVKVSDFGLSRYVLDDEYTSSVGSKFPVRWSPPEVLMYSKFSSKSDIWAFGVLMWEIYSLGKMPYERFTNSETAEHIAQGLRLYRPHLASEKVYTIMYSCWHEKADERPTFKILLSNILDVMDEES

A word on the IC50: it is the midpoint of a concentration-inhibition curve. Consider `CC(C)(C=C(C#N)C(=O)N1CCC[C@@H](c2nc(-c3ccc(Oc4ccccc4)cc3F)c3c(N)nccn23)C1)N1CCN(C2COC2)CC1` [Compound 2, (R)-2-(3-(8-amino-1-(2-fluoro-4-phenoxyphenyl)imidazo[1,5-a]pyrazin-3-yl)piperidine-1-carbonyl)-4-methyl-4-(4-(oxetan-3-yl)piperazin-1-yl)pent-2-enenitrile], for which the IC50 was 1.9 nM.
The value for `CC(C)(C=C(C#N)C(=O)N1CCC[C@H]1Cn1nc(-c2ccc(C(=O)Nc3ccccn3)cc2)c2c(N)nccc21)N1CCN(C2COC2)CC1` [Compound 15, (S)-4-(4-amino-1-((1-(2-cyano-4-methyl-4-(4-(oxetan-3-yl)piperazin-1-yl)pent-2-enoyl)pyrrolidin-2-yl)methyl)-1H-pyrazolo[4,3-c]pyridin-3-yl)-N-(pyridin-2-yl)benzamide] was 22.4 nM.
In the case of `CN1CCN(C(C)(C)C=C(C#N)C(=O)N2CCC[C@H]2Cn2nc(-c3ccc(C(=O)Nc4ccccn4)cc3)c3c(N)nccc32)CC1` [Compound 20, (S)-4-(4-amino-1-((1-(2-cyano-4-methyl-4-(4-methylpiperazin-1-yl)pent-2-enoyl)pyrrolidin-2-yl)methyl)-1H-pyrazolo[4,3-c]pyridin-3-yl)-N-(pyridin-2-yl)benzamide] it was 19.1 nM; in that of `CC(C)(C=C(C#N)C(=O)N1CCC[C@H]1Cn1nc(-c2ccc(C(=O)Nc3ccccn3)cc2)c2c(N)nccc21)N1CCOCC1` [Compound 21, (S)-4-(4-amino-1-((1-(2-cyano-4-methyl-4-morpholinopent-2-enoyl)pyrrolidin-2-yl)methyl)-1H-pyrazolo[4,3-c]pyridin-3-yl)-N-(pyridin-2-yl)benzamide], 18.6 nM; in that of `CC(C)(C=C(C#N)C(=O)N1CCC[C@@H](n2nc(-c3ccc(Oc4c(F)cccc4F)cc3)c3c(N)nccc32)C1)N1CCN(C2COC2)CC1` [Compound 28, (R)-2-(3-(4-amino-3-(4-(2,6-difluorophenoxy)phenyl)-1H-pyrazolo[4,3-c]pyridin-1-yl)piperidine-1-carbonyl)-4-methyl-4-(4-(oxetan-3-yl)piperazin-1-yl)pent-2-enenitrile], 0.9 nM.
In the case of `CC(C)(C=C(C#N)C(=O)N1CCC[C@@H](n2nc(-c3ccc(Oc4cccc(F)c4F)cc3)c3c(N)nccc32)C1)N1CCN(C2COC2)CC1` [Compound 29, (R)-2-(3-(4-amino-3-(4-(2,3-difluorophenoxy)phenyl)-1H-pyrazolo[4,3-c]pyridin-1-yl)piperidine-1-carbonyl)-4-methyl-4-(4-(oxetan-3-yl)piperazin-1-yl)pent-2-enenitrile] it was 0.8 nM; in that of `CCN1CCN(C(C)(C)C=C(C#N)C(=O)N2CCC[C@H]2Cn2nc(-c3ccc(Oc4ccccc4)cc3F)c3c(N)nccc32)CC1=O` [Compound 31, (S)-2-(2-((4-amino-3-(2-fluoro-4-phenoxyphenyl)-1H-pyrazolo[4,3-c]pyridin-1-yl)methyl)pyrrolidine-1-carbonyl)-4-(4-ethyl-3-oxopiperazin-1-yl)-4-methylpent-2-enenitrile], 11.5 nM.
For `CN1CCN(C(C)(C)C=C(C#N)C(=O)N2CCC[C@H]2Cn2nc(-c3ccc(Oc4ccccc4)cc3F)c3c(N)nccc32)CC1=O` [Compound 32, (S)-2-(2-((4-amino-3-(2-fluoro-4-phenoxyphenyl)-1H-pyrazolo[4,3-c]pyridin-1-yl)methyl)pyrrolidine-1-carbonyl)-4-methyl-4-(4-methyl-3-oxopiperazin-1-yl)pent-2-enenitrile], the IC50 stood at 8.9 nM.
For the compound `CC(C)(C=C(C#N)C(=O)N1CCC[C@@H](n2nc(-c3ccc(Oc4ccccc4)cc3)c3c(N)nccc32)C1)N1CCN(C2COC2)CC1` [Compound 34, (R)-2-(3-(4-amino-3-(4-phenoxyphenyl)-1H-pyrazolo[4,3-c]pyridin-1-yl)piperidine-1-carbonyl)-4-methyl-4-(4-(oxetan-3-yl)piperazin-1-yl)pent-2-enenitrile], the IC50 is 1.9 nM.
In the case of `CC(C)(C=C(C#N)C(=O)N1CCC[C@@H](c2nc(-c3ccc(Oc4ccccc4)cc3)c3c(N)nccn23)C1)N1CCN(C2COC2)CC1` [Compound 35, (R)-2-(3-(8-amino-1-(4-phenoxyphenyl)imidazo[1,5-a]pyrazin-3-yl)piperidine-1-carbonyl)-4-methyl-4-(4-(oxetan-3-yl)piperazin-1-yl)pent-2-enenitrile] it was 2.1 nM; in that of `CC(C)(C=C(C#N)C(=O)N1CCC[C@@H](n2nc(-c3ccc(Oc4ccccc4)cc3)c3c(N)nccc32)C1)N1CCN(C2(C)COC2)CC1` [Compound 39, (R)-2-(3-(4-amino-3-(4-phenoxyphenyl)-1H-pyrazolo[4,3-c]pyridin-1-yl)piperidine-1-carbonyl)-4-methyl-4-(4-(3-methyloxetan-3-yl)piperazin-1-yl)pent-2-enenitrile], 1.3 nM; in that of `CCN1CCN(C(C)(C)C=C(C#N)C(=O)N2CCC[C@@H](n3nc(-c4ccc(Oc5ccccc5)cc4F)c4c(N)nccc43)C2)CC1=O` [Compound 40, (R)-2-(3-(4-amino-3-(2-fluoro-4-phenoxyphenyl)-1H-pyrazolo[4,3-c]pyridin-1-yl)piperidine-1-carbonyl)-4-methyl-4-(4-ethyl-3-oxopiperazin-1-yl)pent-2-enenitrile], 2.4 nM.
Turning to `CCN1CCN(C(C)(C)C=C(C#N)C(=O)N2CCC[C@@H](n3nc(-c4ccc(Oc5ccccc5)cc4)c4c(N)nccc43)C2)CC1=O` [Compound 41, (R)-2-(3-(4-amino-3-(4-phenoxyphenyl)-1H-pyrazolo[4,3-c]pyridin-1-yl)piperidine-1-carbonyl)-4-(4-ethyl-3-oxopiperazin-1-yl)-4-methylpent-2-enenitrile], the IC50 was 2.4 nM.
Turning to `CC1(C=C(C#N)C(=O)N2CCC[C@@H](n3nc(-c4ccc(Oc5ccccc5)cc4)c4c(N)nccc43)C2)CCN(C2COC2)CC1` [Compound 42, (R)-2-(3-(4-amino-3-(4-phenoxyphenyl)-1H-pyrazolo[4,3-c]pyridin-1-yl)piperidine-1-carbonyl)-3-(4-methyl-1-(oxetan-3-yl)piperidin-4-yl)acrylonitrile], the IC50 was 2.6 nM.
For `CC1(C=C(C#N)C(=O)N2CCC[C@@H](n3nc(-c4ccc(Oc5ccccc5)cc4)c4c(N)nccc43)C2)CCOCC1` [Compound 43, (R)-2-(3-(4-amino-3-(4-phenoxyphenyl)-1H-pyrazolo[4,3-c]pyridin-1-yl)piperidine-1-carbonyl)-3-(4-methyltetrahydro-2H-pyran-4-yl)acrylonitrile], the IC50 is 2 nM.
In the case of `CN1CCN(C(C)(C)C=C(C#N)C(=O)N2CCC[C@@H](n3nc(-c4ccc(C(=O)Nc5ccccn5)cc4)c4c(N)nccc43)C2)CC1` [Compound 45, (R)-4-(4-amino-1-(1-(2-cyano-4-methyl-4-(4-methylpiperazin-1-yl)pent-2-enoyl)piperidin-3-yl)-1H-pyrazolo[4,3-c]pyridin-3-yl)-N-(pyridin-2-yl)benzamide] it was 4.6 nM; in that of `CN(C1COC1)C(C)(C)C=C(C#N)C(=O)N1CCC[C@@H](n2nc(-c3ccc(C(=O)Nc4ccccn4)cc3)c3c(N)nccc32)C1` [Compound 46, (R)-4-(4-amino-1-(1-(2-cyano-4-methyl-4-(methyl(oxetan-3-yl)amino)pent-2-enoyl)piperidin-3-yl)-1H-pyrazolo[4,3-c]pyridin-3-yl)-N-(pyridin-2-yl)benzamide], 2.1 nM.
